T1: COMT (Homo sapiens, UniProt P21964)
T1 construct: made in house; host or cells: Escherichia coli DH5αF′Iq
T1 sequence (P21964 51-271): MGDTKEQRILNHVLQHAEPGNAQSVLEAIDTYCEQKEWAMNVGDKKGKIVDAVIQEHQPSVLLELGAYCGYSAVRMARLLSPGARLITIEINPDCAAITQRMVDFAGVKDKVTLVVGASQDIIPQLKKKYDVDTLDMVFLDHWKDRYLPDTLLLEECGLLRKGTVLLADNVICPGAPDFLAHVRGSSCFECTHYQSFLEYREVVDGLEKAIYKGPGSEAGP


Assays:
[1] = system: DNA; conditions: cited from earlier work
[2] = system: DNA; conditions: cited from earlier work; remark: listed apart in the source
[3] = system: renal DNA; conditions: in vivo; cited from earlier work
[4] = molecular target: T1, COMT; test: Assay of COMT activity, purified recombinant His-COMT, methylation of catechol estrogens; format: biochemical; conditions: substrate 2-100 μM
Protocol: Assay of COMT Activity. Purified recombinant His-COMT (300 pmol) was reconstituted 0.5 ml of 100 mM KPO4, pH 7.4, containing 5 mM MgCl2, 10 mM β-mercaptoethanol, and 200 μM SAM. Reactions were initiated by adding varying concentrations of each individual catechol estrogen (2, 3, 6, 9, 12, 15, 20, 40, 60, 80, and 100 μM). Blanks contained all compounds except SAM. Reactions proceeded for 10 min at 37° C. with gentle shaking and then were terminated by addition of 2 ml CH2Cl2. To determine COMT activity in breast cancer cells, ZR-75 and MCF-7 cells were harvested at confluency and homogenized in 100 mM KPO4, pH 7.4, 5 mM MgCl2, 10 mM β-mercaptoethanol. Following ultracentrifugation of the cell homogenate (110,000 g, 30 min, 4° C.), the supernatant cytosol was divided into aliquots for ICELISA, protein determination (BCA assay; Pierce, Rockford, Ill.), and COMT assay. The latter was carried out in the presence of 200 μM SAM and 100 μM catechol estrogen for 20 min at 37° C. and then terminated by addition of CH2Cl2. The concentration of endogenous catechol and methoxy estrogens was below the limit of detection by gas chromatography/mass spectrometry.
Extraction and Gas Chromatography/Mass Spectrometry Analysis of Catechol Estrogens. A deuterated internal standard (100 μl of 8 mg/liter E2-d4 in methanol) was added and all estrogens extracted into the CH2Cl2 by vortex mixing for 30 s. 1.5 ml of the CH2Cl2 fraction was evaporated to dryness under air and volatile TMS derivatives prepared by heating the residue with 100 μl of 50% NO-bis(trimethylsilyl)trifluoroacetamide/1% trimethyl chlorosilane in acetonitrile at 56° C. for 30 min. The TMS derivatives of the estrogen metabolites were separated by gas chromatography (H-P 5890, Hewlett-Packard, Wilmington, Del.) on a 5% phenyl methyl silicone stationary phase fused silica capillary column (30 m×0.2 mm×0.5 μm film, HP5; Hewlett-Packard). Helium carrier gas was used at a flow of 1 ml/min. The injector was operated at 250° C., with 2 μl injected in the splitless mode, with a purge (60 ml/min helium) time of 0.6 min. The oven temperature was held at 180° C. for 0.5 min, then raised at 6° C./min to 250° C. where it was held for 17 min, then raised to 300° C. at 8° C./min to give a total run time of 35.42 min. This program permitted adequate separation of a wide range of estrogen metabolites. Retention times (in min) for the TMS derivatives were E1 20.13, E2 and E2-d4 21.89, 4-MeOE1 23.52, 2-MeO-3-MeOE1 (underivatized) 23.75, 2-OH-3-MeOE1 24.87, 2-MeOE1 25.2, 4-MeOE2 25.78, 2-OHE1 and 2-MeO-3-MeOE2 26.19, 2-OH-3-MeOE2 26.9, 2-MeOE2 27.18, 4-OHE1 27.27, 6α-OHE2 27.29, 2-OHE2 27.44, 4-OHE2 28.06, E3 28.38. The EI mass spectrometer (H-P 5970) was operated in the selected ion monitoring mode from 18 to 30 min. Ions monitored were TMS-E1 342, 257, 343; TMS2-E2-d4 420, 421, 287; TMS2-E2 416, 417, 285; TMS-4-MeOE1, TMS-2-OH-3-MeOE1, TMS-2-MeOE1 and TMS-3-MeO-4-OHE1 372, 373, 342; 2-MeO-3-MeOE1 314, 315, 229; TMS2-4-MeOE2, TMS2-2-OH-3-MeOE2, TMS2-2-MeOE2 and TMS2-3-MeO-4-OHE2 446, 447, 315; TMS2-2-OHE1 430, 431, 432; TMS-2-MeO-3-MeOE2 388, 389, 257; TMS2-4-OHE1 430, 431, 345; TMS2-6α-OHE2 414, 283, 309; TMS3-2-OHE2 and TMS3-4-OHE2 504, 505, 373; TMS3-E3 504, 505, 311 (FIG. 7). The instrument was calibrated by simultaneous preparation of an 11-point calibration over the range 0-22 nmol/tube of each compound. Sensitivity was determined to be between 0.02 and 0.04 nmol/tube (400-800 fmol on column) for the various compounds. […] Absolute extraction efficiency for E2, 2-OH-E2 and 4-OH-E2 at 3.5 nmol/tube was 119, 96, and 107% assessed by comparison to injections of spiked solvent samples onto the gas chromatograph. Internal standard added prior to extraction compensated for deviation from 100% recovery for all investigated compounds.
Statistical Analysis. […]

[5] = system: Syrian hamster; conditions: in vivo; cited from earlier work
[6] = system: CYP1B1; test: Assay of CYP1B1 E2 hydroxylation activity; format: biochemical, human
Protocol: Assay of CYP1B1 E2 Hydroxylation Activity. Purified CYP1B1 (200 pmol) was reconstituted with a 2-fold molar amount of recombinant rat NADPH-P450 reductase (400 pmol), purified as previously described, and 60 μg of L-α-dilauroyl-sn-glycero-3-phosphocholine in the presence of sodium cholate (0.005%, w/v) in 0.4 ml of 100 mM potassium phosphate buffer, pH 7.4, containing varying concentrations of E2 (2, 3, 6, 9, 12, 15, 20, 40, 60, 80, and 100 μM) and 1 mM ascorbate. An NADPH-generating system consisting of 5 mM glucose 6-phosphate and 0.5 U of glucose-6-phosphate dehydrogenase/ml was added and reactions initiated by adding NADP+ to a final concentration of 0.5 mM. Reactions proceeded for 10 min at 37° C. with gentle shaking and then were terminated by addition of 2 ml CH2Cl2.
Extraction and Gas Chromatography/Mass Spectrometry Analysis of E2 and Metabolites. A deuterated internal standard (100 μl of 8 mg/liter E2-2, 4, 16, 16-d4 in methanol; CDN Isotopes, Pointe-Claire, Quebec) was added and all steroids extracted into CH2Cl2 by vortex mixing for 30 s. 1.5 ml of the CH2Cl2 fraction was evaporated to dryness under air and volatile TMS derivatives prepared by heating the residue with 100 μl of 50% NO-bis(trimethylsilyl)trifluoroacetamide/1% trimethyl chlorosilane in acetonitrile at 56° C. for 30 min. The TMS derivatives of E2 and its metabolites were separated by gas chromatography (H-P 5890, Hewlett-Packard, Wilmington, Del.) on a 5% phenyl methyl silicone stationary phase fused silica capillary column (30 m×0.2 mm×0.5 μm film, HP5; Hewlett-Packard). Helium carrier gas was used at a flow of 1 ml/min. The injector was operated at 250° C., with 2 μl injected in the splitless mode, with a purge (60 ml/min helium) time of 0.6 min. The oven temperature was held at 189° C. for 0.5 min, then raised at 6° C./min to 250° C. where it was held for 17 min, then raised to 300° C. at 8° C./min to give a total run time of 35.42 min. […] The EI mass spectrometer (H-P 5970) was operated in the selected ion monitoring mode from 18 to 34 min. Ions monitored were TMS2-E2-d4 420, 288, 330; TMS2-E2 416, 285, 326; TMS3-2-OH-E2 504, 373; TMS3-4-OH-E2 504, 373, 325; TMS3-16α-OH-E2 345, 311, 504. The instrument was calibrated by simultaneous preparation of an 11-point calibration over the range […]/tube of each compound. […] Internal standard added prior to extraction compensated for deviation from 100% recovery.
Statistical Analysis. Kinetic parameters (Km and kcat) were determined by nonlinear regression analysis using the computer program GraphPad PRISM (San Diego, Calif.).

| pattern of rates of methylation [4] | Molecule | levels of depurinating DNA adducts versus E2-2,3Q and E1-2,3Q [1] | DNA single-strand breaks [2] | levels of the oxidized base 8-hydroxy-deoxyguanosine [3] | induction of renal cancer [5] | also measured |
| --- | --- | --- | --- | --- | --- | --- |
| – | C[C@]12CC[C@@H]3C4=C(CC[C@H]3[C@@H]1CCC2=O)C(=O)C(=O)C=C4 [E1-3,4Q] | two to three orders of magnitude higher | – | – | – | – |
| – | C[C@]12CC[C@@H]3C4=C(CC[C@H]3[C@@H]1CC[C@@H]2O)C(=O)C(=O)C=C4 [E2-3,4Q] | two to three orders of magnitude higher | – | – | – | – |
| typical hyperbolic patterns | C[C@]12CC[C@@H]3c4cc(O)c(O)cc4CC[C@H]3[C@@H]1CC[C@@H]2O [2-OHE2] | – | negligible effect | did not cause oxidative DNA damage | – | – |
| sigmoid curve pattern | C[C@]12CC[C@@H]3c4ccc(O)c(O)c4CC[C@H]3[C@@H]1CCC2=O [4-OHE1] | – | – | significantly increased | induced renal cancer | – |
| – | Variant 2: recombinant CYP1B1 with 48Arg, 119Ser, 432Val, 453Asn (protein, UniProt Q16678 1-543, looked up, variant A119S) Cytochrome P450 1B1: MGTSLSPNDPWPLNPLSIQQTTLLLLLSVLATVHVGQRLLRQRRRQLRSAPPGPFAWPLIGNAAAVGQAAHLSFARLARRYGDVFQIRLGSCPIVVLNGERAIHQALVQQGSAFADRPSFASFRVVSGGRSMAFGHYSEHWKVQRRAAHSMMRNFFTRQPRSRQVLEGHVLSEARELVALLVRGSADGAFLDPRPLTVVAVANVMSAVCFGCRYSHDDPEFRELLSHNEEFGRTVGAGSLVDVMPWLQYFPNPVRTVFREFEQLNRNFSNFILDKFLRHCESLRPGAAPRDMMDAFILSAEKKAAGDSHGGGARLDLENVPATITDIFGASQDTLSTALQWLLLLFTRYPDVQTRVQAELDQVVGRDRLPCMGDQPNLPYVLAFLYEAMRFSSFVPVTIPHATTANTSVLGYHIPKDTVVFVNQWSVNHDPLKWPNPENFDPARFLDKDGLINKDLTSRVMIFSVGKRRCIGEELSKMQLFLFISILAHQCDFRANPNEPAKMNFSYGLTIKPKSFKVNVTLRESMELLDSAVQNLQAKETCQ | – | – | – | – | 2-OH-Estradiol kcat ([6]; E2 2-hydroxylation): 0.0383 ± 0.0017 s⁻¹; 4-OH-Estradiol kcat ([6]; E2 4-hydroxylation): 0.0633 ± 0.0017 s⁻¹; 16a-OH-Esrradiol kcat ([6]; E2 16α-hydroxylation): 0.00567 ± 0.00033 s⁻¹ |

| Molecule | pattern of rates of methylation [4] | levels of depurinating DNA adducts versus E2-2,3Q and E1-2,3Q [1] | DNA single-strand breaks [2] | levels of the oxidized base 8-hydroxy-deoxyguanosine [3] | induction of renal cancer [5] | also measured |
| --- | --- | --- | --- | --- | --- | --- |
| C[C@]12CC[C@@H]3c4ccc(O)c(O)c4CC[C@H]3[C@@H]1CC[C@@H]2O [4-OHE2] | sigmoid curve pattern | – | induced DNA single-strand breaks | significantly increased | induced renal cancer | – |
